# Like-named read-outs stand apart in the source and are kept apart here.
# Key:
# Format in all cases: cell-based
# α4β2 receptor = molecular target: T1, α4β2 receptor (Rattus norvegicus, UniProt P09483+P12390); experiment: ACh-evoked currents in α4β2 receptors expressed in Xenopus oocytes (two-electrode voltage clamp); settings: for normalized response (%): nef(+), n=5
# T1 construct: expressed in transfected cells; host or cells: Xenopus oocytes injected with in vitro transcribed mRNA
# Procedure: Two-electrode voltage-clamp technique was used to record expression α4β2 or α7 receptors in oocytes. ACh (100 µM) was applied to a single oocyte in the presence or absence of α-BuTX (50 nM) or MCA (3 µM). The holding voltage was -30 or -60 mV for α4β2-nAChR or α7-nAChR, respectively. Downward directions correspond to inward currents.
# mRNAs for the rat α4β2 receptor and α7 receptor, GLUR1, 2, 3 receptors, and NP152 and NP153 were constructed as described previously. Xenopus oocytes were manually separated from the ovary, and subjected to treatment with collagenase (0.5 mg/ml). Thereafter, the treated oocytes were incubated overnight in Barth's solution (in mM, 88 NaCl, 1 KCl, 2.4 NaHCO3, 0.82 MgSO4, 0.33 […], 0.41 CaCl2, and 7.5 Tris; pH 7.6). The oocytes were injected with the α4β2 or α7 receptor mRNA and incubated at 18°C. In some cases, NP152 and NP153 were co-expressed with the α4β2 and α7 receptors. The injected oocytes were incubated and transferred to a recording chamber 2-7 days after incubation and continuously superfused at room temperature (20-22°C) with a standard frog Ringer's solution [in mM: 115 NaCl, 2 KCl, 1.8 CaCl2, 5 HEPES; pH 7.0]. To remove the effect of endogenous muscarinic ACh receptor, 1 µM atropine was added to the extracellular solution. ACh-evoked currents were recorded by use of two-electrode voltage clamp techniques and an amplifier (GeneClamp-500, Axon Instrument, Inc. USA). The currents were analyzed on a microcomputer by pClamp software (Axon Instrument, Inc.; Version 6). From the results, an assessment was made as to whether nefiracetam actually acts on the nACh receptors.
# [1] = molecular target: T2, nACh receptors (α, β, γ, δ) of Torpedo (Tetronarce californica, UniProt P02710+P02712+P02714+P02718); experiment: ACh-evoked currents in normal nACh receptors expressed in Xenopus oocytes (two-electrode voltage clamp)
# T2 construct: expressed in transfected cells; host or cells: Xenopus oocytes
# Procedure: Cell membrane currents were recorded by use of two-electrode voltage clamp techniques (T. Nishizaki et al., Ikeuchi, Brain Res. 687, 214, 1995). ACh (100 µM) was administered to a single oocyte expressing normal ACh receptors at 10-min intervals before and after 10-min treatment of the oocyte with nefiracetam. The holding voltage was -30 mV. In accordance with a conventional method, wild-type acetylcholine (nACh) receptors were expressed in Xenopus oocytes (K. Sumikawa et al., Mol. Brain Res. 5, 183, 1989), and by the application of ACh (100 µM), inward membrane currents were evoked (Table 13). Currents were recorded at 10-min intervals. During the recording period, spontaneous attenuation of the currents was within 5% (data not shown). […] After the drug was washed out, the amplitude gradually recovered (Table 13). The reductions in current were 70% (n=7) with 0.01 µM and 62% with 0.1 µM nefiracetam.
# ACh (100 µM) was applied to each of an oocyte expressing normal ACh receptors and an oocyte expressing mutant ACh receptors (mγΔPKA/Ser353, 354m δΔPKA/Ser361,362) lacking PKA phosphorylation sites, before and after treatment with nefiracetam (0.01 µM). The oocytes expressing normal ACh receptors were treated with H-89 (1 µM) from 15 min before recording, or with pertussis toxin (0.1 µg/ml) for 24h prior to experiments. The currents illustrated in Table 16 were recorded before and 30 min after treatment with nefiracetam. The holding voltage was - 30 mV. In Table 16, each point represents the average obtained from seven oocytes.
# ACh (100 µM) was applied to each of an oocyte expressing normal ACh receptors and an oocyte expressing mutant ACh receptors (mγΔPKA/Ser353,354m δΔPKA/Ser361,362) lacking PKA phosphorylation sites, in the presence and absence of GF109203X (100 nM) or in calcium-free extracellular solution.
# [2] = test system: mutant ACh receptors lacking potent PKC phosphorylation sites on the α and δ subunits (mαΔPKC/Ser333m δΔPKC/Ser377); experiment: ACh-evoked currents in mutant ACh receptors lacking PKC phosphorylation sites expressed in Xenopus oocytes; settings: nefiracetam 1 µM
# T2 sequence (P02718 22-522): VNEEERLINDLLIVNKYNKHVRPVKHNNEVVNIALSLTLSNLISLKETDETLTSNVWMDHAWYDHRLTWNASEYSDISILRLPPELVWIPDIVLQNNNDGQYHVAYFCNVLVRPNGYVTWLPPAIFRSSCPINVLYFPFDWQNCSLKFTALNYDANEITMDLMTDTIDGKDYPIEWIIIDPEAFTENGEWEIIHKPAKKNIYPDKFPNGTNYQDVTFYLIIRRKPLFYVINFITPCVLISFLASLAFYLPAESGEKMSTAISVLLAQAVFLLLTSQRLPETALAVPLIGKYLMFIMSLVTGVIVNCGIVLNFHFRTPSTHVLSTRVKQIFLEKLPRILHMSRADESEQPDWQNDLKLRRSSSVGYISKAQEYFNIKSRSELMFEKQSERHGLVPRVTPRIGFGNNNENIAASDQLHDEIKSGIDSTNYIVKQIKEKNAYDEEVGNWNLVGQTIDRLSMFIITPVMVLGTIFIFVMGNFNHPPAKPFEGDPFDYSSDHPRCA
# T2 sequence (P02712 25-493): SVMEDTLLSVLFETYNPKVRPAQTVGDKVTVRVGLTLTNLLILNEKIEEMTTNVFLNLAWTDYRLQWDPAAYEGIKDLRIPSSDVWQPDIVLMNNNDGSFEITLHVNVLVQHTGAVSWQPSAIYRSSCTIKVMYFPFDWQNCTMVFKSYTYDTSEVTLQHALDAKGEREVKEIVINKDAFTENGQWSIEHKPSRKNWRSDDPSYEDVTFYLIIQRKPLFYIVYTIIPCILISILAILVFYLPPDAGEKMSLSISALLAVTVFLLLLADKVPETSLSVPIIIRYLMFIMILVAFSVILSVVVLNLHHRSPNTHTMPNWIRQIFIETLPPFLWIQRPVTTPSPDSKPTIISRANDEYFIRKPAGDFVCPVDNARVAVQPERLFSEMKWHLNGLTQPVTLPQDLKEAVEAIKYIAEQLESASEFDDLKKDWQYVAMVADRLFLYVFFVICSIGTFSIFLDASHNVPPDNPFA
# T2 sequence (P02710 25-461): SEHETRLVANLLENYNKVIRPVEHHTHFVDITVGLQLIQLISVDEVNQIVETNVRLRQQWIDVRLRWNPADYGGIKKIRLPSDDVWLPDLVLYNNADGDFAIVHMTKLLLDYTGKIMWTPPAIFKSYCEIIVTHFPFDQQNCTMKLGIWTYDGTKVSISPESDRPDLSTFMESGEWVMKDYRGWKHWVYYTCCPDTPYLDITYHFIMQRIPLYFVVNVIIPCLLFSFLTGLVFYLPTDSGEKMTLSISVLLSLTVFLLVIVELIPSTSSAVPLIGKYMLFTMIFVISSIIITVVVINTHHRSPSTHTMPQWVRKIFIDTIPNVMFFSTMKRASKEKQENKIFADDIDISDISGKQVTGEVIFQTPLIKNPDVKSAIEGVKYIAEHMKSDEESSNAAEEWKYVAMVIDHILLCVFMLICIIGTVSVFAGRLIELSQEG
# T2 sequence (P02714 18-506): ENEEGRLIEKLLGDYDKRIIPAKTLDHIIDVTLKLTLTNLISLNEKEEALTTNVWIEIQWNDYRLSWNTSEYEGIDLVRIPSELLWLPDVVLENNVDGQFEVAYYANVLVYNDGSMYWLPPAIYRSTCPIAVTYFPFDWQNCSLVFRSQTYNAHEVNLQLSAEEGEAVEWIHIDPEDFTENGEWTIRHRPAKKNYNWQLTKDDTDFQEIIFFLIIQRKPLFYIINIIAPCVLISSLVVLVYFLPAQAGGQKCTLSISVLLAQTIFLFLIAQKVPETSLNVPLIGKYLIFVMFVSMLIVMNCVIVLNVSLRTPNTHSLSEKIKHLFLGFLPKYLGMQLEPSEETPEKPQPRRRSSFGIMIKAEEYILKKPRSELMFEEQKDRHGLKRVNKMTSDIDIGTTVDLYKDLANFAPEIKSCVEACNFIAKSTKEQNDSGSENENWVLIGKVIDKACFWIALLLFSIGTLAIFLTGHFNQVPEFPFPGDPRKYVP
# T1 sequence (P09483 31-630): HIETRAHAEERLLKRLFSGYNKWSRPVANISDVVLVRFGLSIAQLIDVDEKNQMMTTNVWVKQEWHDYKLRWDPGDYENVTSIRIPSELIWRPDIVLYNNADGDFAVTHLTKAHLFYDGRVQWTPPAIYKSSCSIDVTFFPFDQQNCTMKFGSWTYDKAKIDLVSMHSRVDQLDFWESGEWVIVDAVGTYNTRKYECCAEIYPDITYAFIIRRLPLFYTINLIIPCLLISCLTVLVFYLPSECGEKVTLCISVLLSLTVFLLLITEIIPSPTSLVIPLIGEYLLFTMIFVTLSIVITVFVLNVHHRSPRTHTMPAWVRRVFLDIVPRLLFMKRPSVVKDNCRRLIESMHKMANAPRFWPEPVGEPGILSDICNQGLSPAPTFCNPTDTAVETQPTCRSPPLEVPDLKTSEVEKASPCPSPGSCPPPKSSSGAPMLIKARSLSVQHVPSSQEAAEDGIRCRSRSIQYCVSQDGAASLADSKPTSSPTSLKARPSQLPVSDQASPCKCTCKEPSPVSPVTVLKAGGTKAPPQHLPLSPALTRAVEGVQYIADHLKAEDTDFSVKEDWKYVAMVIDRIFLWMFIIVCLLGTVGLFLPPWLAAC
# T1 sequence (P12390 25-500): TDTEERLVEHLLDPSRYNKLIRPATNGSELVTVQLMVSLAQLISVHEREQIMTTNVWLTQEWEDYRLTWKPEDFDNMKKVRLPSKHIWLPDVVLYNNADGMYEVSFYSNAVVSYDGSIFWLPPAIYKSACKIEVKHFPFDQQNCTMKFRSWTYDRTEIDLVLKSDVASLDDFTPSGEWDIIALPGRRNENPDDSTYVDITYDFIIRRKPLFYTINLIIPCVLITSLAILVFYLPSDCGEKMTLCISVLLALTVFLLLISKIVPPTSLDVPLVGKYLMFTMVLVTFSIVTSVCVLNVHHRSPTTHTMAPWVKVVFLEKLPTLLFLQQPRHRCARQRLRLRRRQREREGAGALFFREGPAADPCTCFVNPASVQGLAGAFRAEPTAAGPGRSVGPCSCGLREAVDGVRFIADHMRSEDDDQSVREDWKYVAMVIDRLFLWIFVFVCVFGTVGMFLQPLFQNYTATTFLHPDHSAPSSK
smiles,measurement,setting,value
"Cc1cccc(C)c1NC(=O)CN1CCCC1=O [nefiracetam, 2-oxo-1-pyrrolidinylacetic acid 2,6-dimethylanilide]",concentration of maximum potentiation of ACh-evoked currents,α4β2 receptor,0.1 µM
same,activity at 1 µM,"α4β2 receptor; 1 h, nefiracetam 1 µM, 60 minutes after treatment, read-out: ACh-evoked currents potentiated, reaching",180%
same,normalized response (%),"α4β2 receptor; ACh 0.1 µM, nefiracetam 1 µM",0%
same,normalized response (%),"α4β2 receptor; ACh 1 µM, nefiracetam 1 µM",2%
same,normalized response (%),"α4β2 receptor; ACh 10 µM, nefiracetam 1 µM",36%
same,normalized response (%),"α4β2 receptor; ACh 100 µM, nefiracetam 1 µM",66%
same,normalized response (%),"α4β2 receptor; ACh 1000 µM, nefiracetam 1 µM",100%
same,activity at 0.0001 µM,"α4β2 receptor; Nefiracetam 0.0001 µM, n = 5 to 8, read-out: % of the original amplitude",100 ± 15.5%
same,activity at 0.001 µM,"α4β2 receptor; Nefiracetam 0.001 µM, n = 5 to 8, read-out: % of the original amplitude",150 ± 13.6%
same,activity at 0.01 µM,"α4β2 receptor; Nefiracetam 0.01 µM, n = 5 to 8, read-out: % of the original amplitude",212 ± 20.5%
same,activity at 0.1 µM,"α4β2 receptor; Nefiracetam 0.1 µM, n = 5 to 8, read-out: % of the original amplitude",225 ± 18.9%
same,activity at 1 µM,"α4β2 receptor; Nefiracetam 1 µM, n = 5 to 8, read-out: % of the original amplitude",161 ± 12.6%
same,activity at 10 µM,"α4β2 receptor; Nefiracetam 10 µM, n = 5 to 8, read-out: % of the original amplitude",156 ± 17.6%
same,currents potentiated to,α4β2 receptor; in the presence of the inactive PKC inhibitory peptide (NP153; iPKCI),169.3%
same,concentration at which potentiation of ACh-evoked currents was observed,α4β2 receptor; lowest effective concentration,≥ 0.0001 µM
same,% of the original amplitude (Ach-evoked current),"α4β2 receptor; treatment as labelled, nefiracetam 1 µM, GF109203X 100 nM, peptides co-expressed, Mean ± SD, n = 6 to 8",160 ± 5.6%
same,inhibition at 0.01 µM,"[1]; 0.01 µM nefiracetam for 10 min, n=7, read-out: reduction in ACh-evoked current",70%
same,inhibition at 0.1 µM,"[1]; 0.1 µM nefiracetam for 10 min, read-out: reduction in ACh-evoked current",62%
same,activity at 1 µM,"[1]; 1.5 h, 1 µM, 10-min treatment, 90 min after washing-out, n=7, read-out: ACh-evoked currents enhanced, reaching",243%
same,activity at 10 µM,"[1]; 1.5 h, 10 µM, 10-min treatment, 90 min after washing-out, n=7, read-out: ACh-evoked currents enhanced, reaching",255%
same,ACh-evoked currents reduced to,"[1]; nefiracetam in the presence of GF109203X, 30 minutes after administration, n=7",60%
same,current potentiation in mutant ACh receptors lacking PKC phosphorylation sites,[2],exhibited no current potentiation

# Source: patent publication EP1022029A1, “NOOTROPIC AGENT” (priority 1997, dated 1999)
